Source: US10166216B2 (Rigel Pharmaceuticals, Inc., priority 2006, dated 2019)

Target: Axl (Homo sapiens (Human), UniProt P30530)
Assay: Phospho-Akt in-cell Western assay (Axl-antibody cross-linking stimulation)
Format: cell-based
Settings: inhibition of Axl activity, phospho-Akt in-cell Western assay
How it was run: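 HeLa cells on poly-L-lysine, starved 24 hrs with Axl/Fc, pre-treated with compound 1 hr at 37° C., then stimulated 5 min with Axl primary/secondary antibody cluster. Fixed cells probed for phospho-Akt by chemiluminescent in-cell Western; signal normalized to crystal violet cell number.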

Chain of Axl (P30530 26-894): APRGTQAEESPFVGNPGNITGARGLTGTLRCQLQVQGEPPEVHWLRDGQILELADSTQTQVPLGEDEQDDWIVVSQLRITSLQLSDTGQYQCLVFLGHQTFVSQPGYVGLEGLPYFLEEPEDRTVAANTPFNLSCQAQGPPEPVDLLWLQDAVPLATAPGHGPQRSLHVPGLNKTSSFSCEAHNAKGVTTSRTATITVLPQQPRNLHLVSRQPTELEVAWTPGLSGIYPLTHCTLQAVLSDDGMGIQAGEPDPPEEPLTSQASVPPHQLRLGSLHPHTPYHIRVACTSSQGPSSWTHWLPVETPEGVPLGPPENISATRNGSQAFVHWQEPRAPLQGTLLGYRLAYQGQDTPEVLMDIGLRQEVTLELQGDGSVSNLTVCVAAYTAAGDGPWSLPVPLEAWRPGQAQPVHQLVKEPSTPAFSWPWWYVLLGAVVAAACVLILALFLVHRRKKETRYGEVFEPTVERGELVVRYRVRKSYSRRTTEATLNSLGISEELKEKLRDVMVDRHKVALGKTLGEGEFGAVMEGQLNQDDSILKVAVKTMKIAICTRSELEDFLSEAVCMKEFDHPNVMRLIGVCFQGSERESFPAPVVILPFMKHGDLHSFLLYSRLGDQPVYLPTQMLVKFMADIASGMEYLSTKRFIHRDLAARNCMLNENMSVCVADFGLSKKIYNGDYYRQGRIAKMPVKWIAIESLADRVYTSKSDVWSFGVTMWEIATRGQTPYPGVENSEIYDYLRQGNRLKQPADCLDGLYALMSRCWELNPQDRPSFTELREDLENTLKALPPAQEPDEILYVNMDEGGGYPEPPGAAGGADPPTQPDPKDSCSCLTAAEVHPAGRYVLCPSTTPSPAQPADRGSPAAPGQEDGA

`COc1cc2c(-n3nc(Nc4ccc(N5CCN(C6CCCCCC6)CC5)cc4)nc3N)ncnc2cc1O` [Compound 109, 4-(5-amino-3-(4-(4-cycloheptylpiperazin-1-yl)phenylamino)-1H-1,2,4-triazol-1-yl)-6-methoxyquinazolin-7-ol] and `COc1cc2ncnc(-n3nc(Nc4ccc(N5CCN(C6CCCCCC6)CC5)cc4)nc3N)c2cc1OC` [Compound 110, N^3-(4-(4-cycloheptylpiperazin-1-yl)phenyl)-1-(6,7-dimethoxyquinazolin-4-yl)-1H-1,2,4-triazole-3,5-diamine] cannot be ordered by IC50: < 1000 nM for the first, < 1000 nM for the second.

First: COc1cc2ncnc(-n3nc(Nc4ccc(N5CCN(C6C7CC8CC(C7)CC6C8)CC5)cc4)nc3N)c2cc1OC (centres unmarked) [Compound 111]
Second: COc1cc2ncnc(-n3nc(Nc4ccc(N5CCN(C6C7CCCC6CCC7)CC5)cc4)nc3N)c2cc1OC (centres unmarked) [Compound 118, N^3-(4-(4-(bicyclo[3.3.1]nonan-9-yl)piperazin-1-yl)phenyl)-1-(6,7-dimethoxyquinazolin-4-yl)-1H-1,2,4-triazole-3,5-diamine]
The IC50 of the first is higher: > 20000 nM for the first, 1000 to 10000 nM for the second.

Compared with `COc1cc2ncnc(-n3nc(Nc4ccc(N5CCN(C6CCCCCCC6)CC5)cc4)nc3N)c2cc1OC` [Compound 112, N^3-(4-(4-cyclooctylpiperazin-1-yl)phenyl)-1-(6,7-dimethoxyquinazolin-4-yl)-1H-1,2,4-triazole-3,5-diamine], `COc1cc2ccnc(-n3nc(Nc4ccc(N5CCN(C6CCCCCC6)CC5)cc4)nc3N)c2cc1OC` [Compound 126, N^3-(4-(4-cycloheptylpiperazin-1-yl)phenyl)-1-(6,7-dimethoxyisoquinolin-1-yl)-1H-1,2,4-triazole-3,5-diamine] is lower in IC50: > 20000 nM for the first, < 1000 nM for the second. The second is the more potent here.

First: CN1CCN(c2ccc(Nc3nc(N)n(-c4nccc5[nH]c(=O)ccc45)n3)cc2F)CC1 [Compound 113, 5-(5-amino-3-(3-fluoro-4-(4-methylpiperazin-1-yl)phenylamino)-1H-1,2,4-triazol-1-yl)-1,6-naphthyridin-2(1H)-one]
Second: CN1CCN(c2ccc(Nc3nc(N)n(-c4ncnc5cc(O)c(O)cc45)n3)cc2F)CC1 [Compound 116, 4-(5-amino-3-(3-fluoro-4-(4-methylpiperazin-1-yl)phenylamino)-1H-1,2,4-triazol-1-yl)quinaoline-6,7-diol]
The IC50 of the first is lower: < 1000 nM for the first, 1000 to 10000 nM for the second. The first is the more potent here.

`COc1cc2ncnc(-n3nc(Nc4ccc(N5CCN(C6CCCCC6)CC5)c(Cl)c4)nc3N)c2cc1OC` [Compound 114, N^3-(3-chloro-4-(4-cyclohexylpiperazin-1-yl)phenyl)-1-(6,7-dimethoxyquinazolin-4-yl)-1H-1,2,4-triazole-3,5-diamine] and `COc1cc2ncnc(-n3nc(Nc4ccc(N5CCN(C6CCCCC6)CC5)c(F)c4)nc3N)c2cc1OC` [Compound 122, N^3-(4-(4-cyclohexylpiperazin-1-yl)-3-fluorophenyl)-1-(6,7-dimethoxyquinazolin-4-yl)-1H-1,2,4-triazole-3,5-diamine] cannot be ordered by IC50: < 1000 nM for the first, < 1000 nM for the second.

`Nc1nc(Nc2ccc(N3CCN(C4CCCCC4)CC3)cc2)nn1-c1cc2c(nn1)-c1ccccc1CC2` [Compound 115, N^3-(4-(4-cyclohexylpiperazin-1-yl)phenyl)-1-(5,6-dihydrobenzo[h]cinnolin-3-yl)-1H-1,2,4-triazole-3,5-diamine] and `Nc1nc(Nc2ccc(N3CCN(C4CC5CCC4C5)CC3)cc2)nn1-c1ncnc2cc(-c3ccccc3)sc12` (centres unmarked) [Compound 129, N^3-(4-(4-(bicyclo[2.2.1]heptan-2-yl)piperazin-1-yl)phenyl)-1-(6-phenylthieno[3,2-d]pyrimidin-4-yl)-1H-1,2,4-triazole-3,5-diamine] fall in the same range of IC50: 1000 to 10000 nM for the first, 1000 to 10000 nM for the second.

First: COc1cc2c(-n3nc(Nc4ccc(N5CCN(C)CC5)c(F)c4)nc3N)ncnc2cc1O [Compound 117, 4-(5-amino-3-(3-fluoro-4-(4-methylpiperazin-1-yl)phenylamino)-1H-1,2,4-triazol-1-yl)-6-methoxyquinazolin-7-ol]
Second: COc1cc2ncnc(-n3nc(Nc4ccc(N5CCN(C)CC5)c(C(N)=O)c4)nc3N)c2cc1OC [Compound 121, 5-(5-amino-1-(6,7-dimethoxyquinazolin-4-yl)-1H-1,2,4-triazol-3-ylamino)-2-(4-methylpiperazin-1-yl)benzamide]
The IC50 of the first is lower: < 1000 nM for the first, 1000 to 10000 nM for the second. The first is the more potent here.

First: CCN1CCN(c2cc(Nc3nc(N)n(-c4ncnc5cc(OC)c(OC)cc45)n3)ccc2Cl)CC1 [Compound 119, N-(4-chloro-3-(4-ethylpiperazin-1-yl)phenyl)-1-(6,7-dimethoxyquinazolin-4-yl)-1H-1,2,4-triazole-3,5-diamine]
Second: COc1cc2ncnc(-n3nc(Nc4ccc(Cl)c(N5CCN(C(C)=O)CC5)c4)nc3N)c2cc1OC [Compound 120, 1-(4-(5-(5-amino-1-(6,7-dimethoxyquinazolin-4-yl)-1H-1,2,4-triazol-3-ylamino)-2-chlorophenyl)piperazin-1-yl)ethanone]
The IC50 of the first is lower: 1000 to 10000 nM for the first, > 20000 nM for the second. The first is the more potent here.

`COc1cc2ncnc(-n3nc(Nc4ccc(N5CCN(C6CC7CCC6C7)CC5)c(F)c4)nc3N)c2cc1OC` (centres unmarked) [Compound 123, N^3-(4-(4-(bicyclo[2.2.1]heptan-2-yl)piperazin-1-yl)-3-fluorophenyl)-1-(6,7-dimethoxyquinazolin-4-yl)-1H-1,2,4-triazole-3,5-diamine] and `COc1cc2ncnc(-n3nc(Nc4ccc(N5CCN(C6CC7CCCC76)CC5)cc4)nc3N)c2cc1OC` (centres unmarked) [Compound 124, N^3-(4-(4-(bicyclo[3.2.0]heptan-6-yl)piperazin-1-yl)phenyl)-1-(6,7-dimethoxyquinazolin-4-yl)-1H-1,2,4-triazole-3,5-diamine] cannot be ordered by IC50: > 20000 nM for the first, > 20000 nM for the second.

`COc1cc2ccnc(-n3nc(Nc4ccc(N5CCN(C6CC7CCC6C7)CC5)cc4)nc3N)c2cc1OC` (centres unmarked) [Compound 125, N^3-(4-(4-(bicyclo[2.2.1]heptan-2-yl)piperazin-1-yl)phenyl)-1-(6,7-dimethoxyisoquinolin-1-yl)-1H-1,2,4-triazole-3,5-diamine] and `Nc1nc(Nc2ccc(N3CCN(C4CC5CCC4C5)CC3)cc2)nn1-c1nccc2occc12` (centres unmarked) [Compound 131, N^3-(4-(4-(bicyclo[2.2.1]heptan-2-yl)piperazin-1-yl)phenyl)-1-(furo[3,2-c]pyridin-4-yl)-1H-1,2,4-triazole-3,5-diamine] cannot be ordered by IC50: < 1000 nM for the first, < 1000 nM for the second.

`Nc1nc(Nc2ccc(N3CCN(C4CC5CCC4C5)CC3)cc2)nn1-c1ncnc2sccc12` (centres unmarked) [Compound 127, N^3-(4-(4-(bicyclo[2.2.1]heptan-2-yl)piperazin-1-yl)phenyl)-1-(thieno[2,3-d]pyrimidin-4-yl)-1H-1,2,4-triazole-3,5-diamine] and `Nc1nc(Nc2ccc(N3CCN(C4CC5CCC4C5)CC3)cc2)nn1-c1ncnc2ccsc12` (centres unmarked) [Compound 128, N^3-(4-(4-(bicyclo[2.2.1]heptan-2-yl)piperazin-1-yl)phenyl)-1-(thieno[3,2-d]pyrimidin-4-yl)-1H-1,2,4-triazole-3,5-diamine] cannot be ordered by IC50: < 1000 nM for the first, < 1000 nM for the second.

`Nc1nc(Nc2ccc(N3CCN(C4CC5CCC4C5)CC3)cc2)nn1-c1ncnc2sc3c(c12)CCC3` (centres unmarked) [Compound 132, N^3-(4-(4-(bicyclo[2.2.1]heptan-2-yl)piperazin-1-yl)phenyl)-1-(6,7-dihydro-5H-cyclopenta[4,5]thieno[2,3-d]pyrimidin-4-yl)-1H-1,2,4-triazole-3,5-diamine] showed an IC50 of 1000 to 10000 nM.
